The values that follow come from patent publication US11066443B2 (Hoffmann-La Roche Inc., priority 2017, dated 2021).

≈ marks a conversion by molar mass, not a printed value.

In the first assay the test system is P. aeruginosa ATCC27853. In words: Antimicrobial susceptibility testing: microbroth minimum inhibitory concentration (MIC) determination. The format is cell-based. Particulars: Pseudomonas aeruginosa, CLSI microbroth dilution in CAMHB, read after 20 hours, lowest concentration inhibiting >=80% of growth. The method, then:
The in vitro antimicrobial activity of the compounds was determined through microbroth minimum inhibitory concentration (MIC) methodology performed according to the Clinical and Laboratory Standard Institute guidelines (CLSI—M07-A9 Jan. 2012. Methods for Dilution Antimicrobial Susceptibility Tests for Bacteria That Grow Aerobically; Approved Standard—Ninth Edition, Clinical and Laboratory Standards Institue, Wayne/PA, US and the CLSI—M100-S24 Jan. 2014. Performance Standards for Antimicrobial Susceptibility Testing; Approved Standard—Fourth Informational Supplement, Clinical and Laboratory Standards Institue, Wayne/PA, US).
The compound stock solution was freshly prepared at 10× the required top concentration for the MIC determination, i.e. at 1280 mg/L, by reconstitution of the dry compound in 50:50 water:DMSO.
Polystyrene non-treated 96 wells microtiter plates were used for preparing panel containing compound serial twofold diluted at two times the final testing concentration (e.g. range from 64 to 0.06 μg/ml) in cation adjusted Mueller Hinton broth medium (CAMHB).
Inoculum was prepared by the “direct colony suspension method”. Colonies of P. aeruginosa ATCC27853 or clinical isolates were suspended in saline solution and adjusted to 0.5 McFarland, diluted 100 times in CAMHB broth and 50 μl added to each well (final concentration of cells ˜5×10^(5) CFU/ml and Final volume/well of 100 μl). Microtiter plates were sealed and incubated at 35±2° C.
MICs values were read after 20 hours of incubation and recorded as the lowest concentration of the antimicrobial that inhibits more or equal to 80% of growth of the organism as detected by the unaided eye and using a microtiter plate optical density reader (OD 600 nm).
Table 1 provides the minimum inhibitory concentration (MIC) in microgram per milliliter of the compounds of present invention obtained against the P. aeruginosa ATCC27853 (Table 1).
In turn, `CN1C(=O)[C@H](CCCCN)NC(=O)[C@H](CCCN)NCc2ccccc2Sc2ccc(C(C)(C)C)cc2CNC(=O)[C@@H]1Cc1c[nH]c2ccccc12` [Example 20, (12S,15S,18S)-15-(4-Amino-butyl)-18-(3-amino-propyl)-6-tert-butyl-12-(1H-indol-3-ylmethyl)-13-methyl-2-thia-10,13,16,19-tetraaza-tricyclo[19.4.0.0*3,8*]pentacosa-1(25),3,5,7,21,23-hexaene-11,14,17-trione] returned an MIC of 32 µg/mL (≈ 44.1 µM). For `CN1C(=O)[C@H](CCCCN)NC(=O)[C@H](CCCN)NCc2ccccc2Sc2ccc(-c3ccccc3)cc2CNC(=O)[C@@H]1Cc1c[nH]c2ccccc12` [Example 19, (12S,15S,18S)-15-(4-Amino-butyl)-18-(3-amino-propyl)-12-(1H-indol-3-ylmethyl)-13-methyl-6-phenyl-2-thia-10,13,16,19-tetraaza-tricyclo[19.4.0.0*3,8*]pentacosa-1(25),3,5,7,21,23-hexaene-11,14,17-trione], the MIC was found to be 32 µg/mL (≈ 42.9 µM). The same measure, in the same setting: in the case of `CCc1ccc2c(c1)CNC(=O)[C@H](Cc1c[nH]c3ccccc13)N(C)C(=O)[C@H](CCCCN)NC(=O)[C@H](CCCN)NCc1ccccc1S2` [Example 18, (12S,15S,18S)-15-(4-Amino-butyl)-18-(3-amino-propyl)-6-ethyl-12-(1H-indol-3-ylmethyl)-13-methyl-2-thia-10,13,16,19-tetraaza-tricyclo[19.4.0.0*3,8*]pentacosa-1(25),3,5,7,21,23-hexaene-11,14,17-trione] it was 32 µg/mL (≈ 45.8 µM); in that of `Cc1cccc2c1Sc1ccccc1CN[C@@H](CCCN)C(=O)N[C@@H](CCCCN)C(=O)N(C)[C@@H](Cc1c(C)[nH]c3ccccc13)C(=O)NC2` [Example 16, (12S,15S,18S)-15-(4-Amino-butyl)-18-(3-amino-propyl)-4,13-dimethyl-12-(2-methyl-1H-indol-3-ylmethyl)-2-thia-10,13,16,19-tetraaza-tricyclo[19.4.0.0*3,8*]pentacosa-1(21),3,5,7,22,24-hexaene-11,14,17-trione], 32 µg/mL (≈ 45.8 µM). In turn, `Cc1[nH]c2ccccc2c1C[C@H]1C(=O)NCc2cc(Cl)cc(Cl)c2Sc2ccccc2CN[C@@H](CCCN)C(=O)N[C@@H](CCCCN)C(=O)N1C` [Example 17, (12S,15S,18S)-15-(4-Amino-butyl)-18-(3-amino-propyl)-4,6-dichloro-13-methyl-12-(2-methyl-1H-indol-3-ylmethyl)-2-thia-10,13,16,19-tetraaza-tricyclo[19.4.0.0*3,8*]pentacosa-1(21),3,5,7,22,24-hexaene-1,14,17-trione] yielded an MIC of 32 µg/mL (≈ 42.5 µM). For `CN1C(=O)[C@H](CCCCN)NC(=O)[C@H](CCCN)NCc2cccnc2Sc2c(cc(C(F)(F)F)cc2C(F)(F)F)CNC(=O)[C@@H]1Cc1c[nH]c2ccccc12` [Example 23, (11S,14S,17S)-14-(4-Amino-butyl)-11-(3-amino-propyl)-17-(1H-indol-3-ylmethyl)-16-methyl-23,25-bis-trifluoromethyl-2-thia-4,10,13,16,19-pentaaza-tricyclo[19.4.0.0*3,8*]pentacosa-1(25),3,5,7,21,23-hexaene-12,15,18-trione], 32 µg/mL (≈ 39.7 µM) was the least that counted as inhibitory (MIC). Compound `CN1C(=O)[C@H](CCCCN)NC(=O)[C@H](CCCN)NCc2ccccc2Sc2c(cc(Cl)cc2C(F)(F)F)CNC(=O)[C@@H]1Cc1c[nH]c2ccccc12` [Example 13, (12S,15S,18S)-15-(4-Amino-butyl)-18-(3-amino-propyl)-6-chloro-12-(1H-indol-3-ylmethyl)-13-methyl-4-trifluoromethyl-2-thia-10,13,16,19-tetraaza-tricyclo[19.4.0.0*3,8*]pentacosa-1(25),3,5,7,21,23-hexaene-11,14,17-trione] gave an MIC of 16 µg/mL (≈ 20.7 µM).

`CN1C(=O)[C@H](CCCCN)NC(=O)[C@H](CCCN)NCc2ccccc2Sc2c(Cl)cc(C(F)(F)F)cc2CNC(=O)[C@@H]1Cc1c[nH]c2ccccc12` [Example 11, (12S,15S,18S)-15-(4-Amino-butyl)-18-(3-amino-propyl)-4-chloro-12-(1H-indol-3-ylmethyl)-13-methyl-6-trifluoromethyl-2-thia-10,13,16,19-tetraaza-tricyclo[19.4.0.0*3,8*]pentacosa-1(25),3,5,7,21,23-hexaene-11,14,17-trione] returned an MIC of 16 µg/mL (≈ 20.7 µM). `CN1C(=O)[C@H](CCCCN)NC(=O)[C@H](CCCN)NCc2ccccc2Sc2c(Cl)cccc2CNC(=O)[C@@H]1Cc1c[nH]c2ccccc12` [Example 3, (12S,15S,18S)-15-(4-Amino-butyl)-18-(3-amino-propyl)-4-chloro-12-(1H-indol-3-ylmethyl)-13-methyl-2-thia-10,13,16,19-tetraaza-tricyclo[19.4.0.0*3,8*]pentacosa-1(21),3,5,7,22,24-hexaene-11,14,17-trione]: the MIC was greater than 64 µg/mL.

In turn, `CN1C(=O)[C@H](CCCCN)NC(=O)[C@H](CCCN)NCc2cccnc2Sc2c(Cl)ccc(-c3ccccc3)c2CNC(=O)[C@@H]1Cc1c[nH]c2ccccc12` [Example 29, (11S,14S,17S)-14-(4-Amino-butyl)-11-(3-amino-propyl)-25-chloro-17-(1H-indol-3-ylmethyl)-16-methyl-22-phenyl-2-thia-4,10,13,16,19-pentaaza-tricyclo[19.4.0.0*3,8*]pentacosa-1(25),3(8),4,6,21,23-hexaene-12,15,18-trione] yielded an MIC of 32 µg/mL (≈ 41 µM).

Another assay has as its system P. aeruginosa NCTC11454. In words: Antimicrobial susceptibility testing: 50% growth inhibitory concentration (IC50) determination. The following applies: Pseudomonas aeruginosa, Iso-Sensitest broth, OD 600 nm every 20 minutes over 16h, growth inhibition during logarithmic growth. The format is cell-based. The protocol:
The in vitro antimicrobial activity of the compounds was alternatively determined according to the following procedure: The assay used a 10-points Iso-Sensitest broth medium to measure quantitatively the in vitro activity of the compounds against P. aeruginosa NCTC11454. Stock compounds in DMSO were serially twofold diluted (e.g. range from 50 to 0.097 μM final concentration) in 384 wells microtiter plates and inoculated with 49 μl the bacterial suspension in Iso-Sensitest medium to have a final cell concentration of ˜5×10^(5) CFU/ml in a final volume/well of 50 ul/well. Microtiter plates were incubated at 35±2° C. Bacterial cell growth was determined with the measurement of optical density at λ=600 nm each 20 minutes over a time course of 16h. Growth inhibition was calculated during the logarithmic growth of the bacterial cells with determination of the concentration inhibiting 50% (IC50) and 90% (IC90) of the growth. Table 2 provides the 50% growth inhibitory concentrations (IC50) in micromoles per liter of the compounds of present invention obtained against P. aeruginosa NCTC11454.
In turn, `Cc1[nH]c2ccccc2c1C[C@H]1C(=O)NCc2cc(-c3ccnc(Cl)c3)cc(Cl)c2Sc2ncccc2CN[C@@H](CCCN)C(=O)N[C@@H](CCCCN)C(=O)N1C` [Example 44, (11S,14S,17S)-14-(4-Amino-butyl)-11-(3-amino-propyl)-25-chloro-23-(2-chloro-pyridin-4-yl)-16-methyl-17-(2-methyl-1H-indol-3-ylmethyl)-2-thia-4,10,13,16,19-pentaaza-tricyclo[19.4.0.0*3,8*]pentacosa-1(25),3(8),4,6,21,23-hexaene-12,15,18-trione] displayed an IC50 of 27 µM. In other words, the double-digit micromolar range. In turn, `CN1C(=O)[C@H](CCCCN)NC(=O)[C@H](CCCN)NCc2ncccc2Sc2c(Cl)cc(C(F)(F)F)cc2CNC(=O)[C@@H]1Cc1c[nH]c2ccccc12` [Example 24, (11S,14S,17S)-14-(4-Amino-butyl)-11-(3-amino-propyl)-25-chloro-17-(1H-indol-3-ylmethyl)-16-methyl-23-trifluoromethyl-2-thia-7,10,13,16,19-pentaaza-tricyclo[19.4.0.0*3,8*]pentacosa-1(25),3,5,7,21,23-hexaene-12,15,18-trione] returned an IC50 of 22.4 µM. This IC50 and that of the compound before are within 1.5-fold of each other. `CN1C(=O)[C@H](CCCCN)NC(=O)[C@H](CCCN)NCc2ccccc2Sc2c(Cl)cc(-c3cccnc3)cc2CNC(=O)[C@@H]1Cc1c[nH]c2ccccc12` [Example 34, (12S,15S,18S)-15-(4-Amino-butyl)-18-(3-amino-propyl)-4-chloro-12-(1H-indol-3-ylmethyl)-13-methyl-6-pyridin-3-yl-2-thia-10,13,16,19-tetraaza-tricyclo[19.4.0.0*3,8*]pentacosa-1(25),3,5,7,21,23-hexaene-11,14,17-trione]: the 50% inhibitory concentration (IC50) stood at 27.8 µM. `CN1C(=O)[C@H](CCCCN)NC(=O)[C@H](CCCN)NCc2ccccc2Sc2ccc(Cl)cc2CNC(=O)[C@@H]1Cc1cn(C)c2ccccc12` [Example 6, (12S,15S,18S)-15-(4-Amino-butyl)-18-(3-amino-propyl)-6-chloro-13-methyl-12-(1-methyl-1H-indol-3-ylmethyl)-2-thia-10,13,16,19-tetraaza-tricyclo[19.4.0.0*3,8*]pentacosa-1(21),3,5,7,22,24-hexaene-11,14,17-trione] showed an IC50 of 22.7 µM. `CN1C(=O)[C@H](CCCCN)NC(=O)[C@H](CCCN)NCc2cc(-c3ccc(CN)cc3)ccc2Sc2c(Cl)cccc2CNC(=O)[C@@H]1Cc1c[nH]c2ccccc12` [Example 50, (12S,15S,18S)-15-(4-Amino-butyl)-23-(4-aminomethyl-phenyl)-18-(3-amino-propyl)-4-chloro-12-(1H-indol-3-ylmethyl)-13-methyl-2-thia-10,13,16,19-tetraaza-tricyclo[19.4.0.0*3,8*]pentacosa-1(25),3,5,7,21,23-hexaene-11,14,17-trione] showed an IC50 of 8.47 µM.
